Measured values published in patent US7947726B2, “Non-steroidal ligands for the glucocorticoid receptor, and compositions thereof” (The Regents of the University of California, priority 2002, dated 2011).
Like-named read-outs stand apart in the source and are kept apart here.

Key:
MR = biological target: T1, MR (Homo sapiens, UniProt P08235); experiment: MR activation (max fold activation); assay type: cell-based; conditions: Table 4
T1 sequence (P08235 1-984): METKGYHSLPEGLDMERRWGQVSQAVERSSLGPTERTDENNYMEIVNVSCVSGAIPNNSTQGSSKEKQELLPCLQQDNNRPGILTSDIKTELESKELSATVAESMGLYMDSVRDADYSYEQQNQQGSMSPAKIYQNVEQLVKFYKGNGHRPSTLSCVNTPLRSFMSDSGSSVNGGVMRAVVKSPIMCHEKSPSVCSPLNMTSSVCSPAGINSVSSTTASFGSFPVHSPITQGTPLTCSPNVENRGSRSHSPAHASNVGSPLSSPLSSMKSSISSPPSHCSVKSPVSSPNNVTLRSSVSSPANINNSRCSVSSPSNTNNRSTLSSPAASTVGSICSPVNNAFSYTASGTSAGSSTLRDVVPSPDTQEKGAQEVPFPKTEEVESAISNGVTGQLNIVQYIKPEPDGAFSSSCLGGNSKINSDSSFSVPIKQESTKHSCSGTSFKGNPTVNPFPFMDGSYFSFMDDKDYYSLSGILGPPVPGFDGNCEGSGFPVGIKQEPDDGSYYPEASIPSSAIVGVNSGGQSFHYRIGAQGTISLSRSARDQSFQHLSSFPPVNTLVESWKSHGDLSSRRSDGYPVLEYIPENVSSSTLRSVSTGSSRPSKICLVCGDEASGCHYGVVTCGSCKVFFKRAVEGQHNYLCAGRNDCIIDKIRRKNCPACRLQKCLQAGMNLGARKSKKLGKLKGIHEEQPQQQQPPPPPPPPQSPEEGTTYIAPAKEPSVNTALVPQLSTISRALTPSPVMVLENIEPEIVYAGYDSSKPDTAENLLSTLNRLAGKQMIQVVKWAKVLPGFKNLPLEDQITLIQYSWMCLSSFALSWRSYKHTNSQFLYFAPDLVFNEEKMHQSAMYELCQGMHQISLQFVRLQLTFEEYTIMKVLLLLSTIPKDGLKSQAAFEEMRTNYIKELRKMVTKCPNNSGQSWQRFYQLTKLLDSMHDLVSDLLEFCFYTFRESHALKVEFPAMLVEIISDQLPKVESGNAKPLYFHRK

GR [1] = biological target: T2, GR (Rattus norvegicus, UniProt P06536); experiment: AP-1 repression luciferase assay in U2OS cells stably transfected with rat GR; assay type: cell-based; conditions: Table 5, TPA-stimulated U2OS cells; for EC50: read-out: Repression AP-1 pot (EC50); for Emax: 12 h, read-out: Repression AP-1 % max repression
T2 construct: expressed in transfected cells; gift of Keith Yamamoto
T2 sequence (P06536 1-795): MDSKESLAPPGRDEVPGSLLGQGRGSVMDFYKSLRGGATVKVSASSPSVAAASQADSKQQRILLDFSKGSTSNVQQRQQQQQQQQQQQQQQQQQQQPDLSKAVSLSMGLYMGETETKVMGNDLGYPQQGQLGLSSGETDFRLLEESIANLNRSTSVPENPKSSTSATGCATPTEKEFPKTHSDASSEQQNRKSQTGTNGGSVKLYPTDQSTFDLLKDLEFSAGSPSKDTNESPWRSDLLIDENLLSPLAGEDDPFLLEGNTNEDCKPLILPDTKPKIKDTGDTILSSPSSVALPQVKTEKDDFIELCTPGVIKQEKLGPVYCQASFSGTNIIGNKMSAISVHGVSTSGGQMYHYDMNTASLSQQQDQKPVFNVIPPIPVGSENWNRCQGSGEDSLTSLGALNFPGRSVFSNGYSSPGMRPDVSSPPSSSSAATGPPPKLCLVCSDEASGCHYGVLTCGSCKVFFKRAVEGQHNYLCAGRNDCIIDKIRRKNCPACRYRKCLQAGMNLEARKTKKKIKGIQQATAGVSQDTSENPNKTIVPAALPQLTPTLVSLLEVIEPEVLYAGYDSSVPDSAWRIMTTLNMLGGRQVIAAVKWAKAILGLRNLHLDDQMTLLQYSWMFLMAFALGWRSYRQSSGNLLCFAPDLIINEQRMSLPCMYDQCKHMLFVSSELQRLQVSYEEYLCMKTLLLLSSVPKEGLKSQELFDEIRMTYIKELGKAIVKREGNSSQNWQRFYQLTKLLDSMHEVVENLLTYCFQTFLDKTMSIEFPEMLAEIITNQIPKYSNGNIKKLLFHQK
Experimental: For API repression assays, U2OS cells stably transfected with rat GR were grown in similar media as for CV-1 cells with the exception of the FBS concentration, which was 10% and the only antibiotic was […]. Cells were plated and transfected in a similar fashion, except for plasmids, which in this case were 50 ng/well AP1-Luc and 10 ng/well β-galactosidase. Post-transfection, cells were incubated with either 50 ng/mL TPA (Phorbol 12-myristate 13-acetate), or 50 ng/mL TPA and various hormone dilutions in 10% charcoal treated FBS media. The cells were incubated for 12 h, and the lysis, β-galactosidase assay, and luciferase assay were performed as previously described.

[2] = biological target: T3, glucocorticoid receptor (GR) (Homo sapiens, UniProt P04150); experiment: Glucocorticoid Receptor Competitor Assay Kit (Panvera) ligand binding; conditions: Table 3; relative binding affinity, dexamethasone = 100
T3 construct: purchased Panvera Corp, Madison, Wis
T3 sequence (P04150 1-777): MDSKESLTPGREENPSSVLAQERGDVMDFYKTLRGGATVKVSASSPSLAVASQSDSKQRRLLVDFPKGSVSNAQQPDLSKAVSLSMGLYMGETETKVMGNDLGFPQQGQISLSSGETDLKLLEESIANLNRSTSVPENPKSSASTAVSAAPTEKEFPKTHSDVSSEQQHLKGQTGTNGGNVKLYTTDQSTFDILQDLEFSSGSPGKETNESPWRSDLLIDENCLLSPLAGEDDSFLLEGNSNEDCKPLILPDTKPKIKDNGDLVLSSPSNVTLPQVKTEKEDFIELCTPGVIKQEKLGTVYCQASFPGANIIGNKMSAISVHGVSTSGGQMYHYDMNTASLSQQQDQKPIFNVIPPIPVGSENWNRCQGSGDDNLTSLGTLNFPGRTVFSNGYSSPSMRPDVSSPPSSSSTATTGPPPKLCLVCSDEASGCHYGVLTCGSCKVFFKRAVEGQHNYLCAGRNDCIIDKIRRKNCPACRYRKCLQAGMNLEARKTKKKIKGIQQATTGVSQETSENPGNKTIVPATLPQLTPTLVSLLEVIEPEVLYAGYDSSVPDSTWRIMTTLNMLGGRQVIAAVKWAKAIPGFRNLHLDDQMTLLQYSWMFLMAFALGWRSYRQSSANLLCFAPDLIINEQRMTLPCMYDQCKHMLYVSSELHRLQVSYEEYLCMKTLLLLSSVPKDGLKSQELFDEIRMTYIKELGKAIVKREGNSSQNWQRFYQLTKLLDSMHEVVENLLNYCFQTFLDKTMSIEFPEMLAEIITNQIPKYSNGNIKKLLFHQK
From the text: The Glucocorticoid Receptor Competitor Assay Kit (Panvera Corp, Madison, Wis.) was used for ligand binding studies. The recommended room temperature protocol was followed for all assayed ligands.

GR [3] = biological target: T4, GR (Homo sapiens, UniProt P04150); experiment: GRE (TAT3-Luc) activation luciferase assay in CV-1 cells transfected with GR; assay type: cell-based; conditions: Table 4; for EC50: read-out: GR pot (EC50)
T4 construct: expressed in transfected cells; host or cells: CV-1 cells, transient transfection (plasmid a gift of Keith Yamamoto, UCSF)
T4 sequence (P04150 1-777): T3 sequence (P04150 1-777)
Experimental: Cells were plated into tissue culture treated, 96 well flat bottom plates (25,000 cells/well), and incubated for 12 h at 37° C. Cells were then transfected using the Lipofectamine PLUS transfection reagent (Gibco BRL). DNA-lipid complexes of 5 ng GR, 50 ng TAT3-Luc, 7.5 ng β-galactosidase, 1 μL-well PLUS reagent and 0.67 μL-well lipofectamine in 50 μL/well serum free media were added to cells and incubated for 4 h at 37° C. Complexes were removed and hormones diluted in 5% charcoal-stripped FBS were added to the cells, which were then incubated for 24 hours at 37° C. Media was removed and the cells were washed with 100 μL Ca^+2, Mg^+2 free phosphate buffered saline (PBS). Lysis was achieved by adding 50 μL of Passive Lysis Buffer (Promega Corp, Madison, Wis.) and shaking the plate for 15 min. 15 μL of this lysate was then used to assay β-galactosidase activity (β-galactosidase enzyme assay system, Promega Corp., recommended procedures followed). The Luciferase Assay System (Promega Corp.) was used to assay luciferase activity. 100 μL of luciferase assay reagent was added rapidly to the plate and luminescence was measured for 10 ms/well on an Analyst AD Detection System (LJL Biosystems, Sunnyvale, Calif.).

NF-κB = NF-κB repression luciferase assay in A549 cells; assay type: cell-based, human; conditions: Table 5, TNF-α-stimulated A549 cells; for EC50: Homo sapiens, read-out: Repression NF-KB pot (EC50)
From the text: Plasmids for GR (human, pSG5 backbone), AP1-Luc (synthetic AP1 response element upstream of a firefly luciferase gene), TAT3-Luc (three copies of the tyrosine aminotransferase glucocorticoid response element upstream of a firefly luciferase gene), β-galactosidase (used as a transfection control), as well as two stable transfected cells lines: an A549 (human, lung carcinoma) cell line stably transfected with a κB response element upstream of a firefly luciferase gene, (R. M. Nissen et al., Genes Dev., 14(18):2314-29, (2000)) and a U2OS (human, osteosarcoma) stably transfected with rat GR (I. Rogatsky, et al., Mol. Cell. Biol., 1997, 17, 3181-3193) were a gift of Professor Keith Yamamoto (Department of Biochemistry, University of California, San Francisco).
For NF-κB repression assays, A549 cells stably transfected with a luciferase reporter were grown under the same conditions as CV-1 cells. 50,000 cells/well were plated into 96 well plates and incubated for 12 h at 37° C. Either TNF-α alone or mixed with various hormone dilutions in media were then added to the cells, which were then incubated for 8 hours. Procedures for lysis and luciferase assay were performed as previously described. Protein content was used as a control in this case and the recommended procedures using the BCA Protein Assay Kit (Roche) were followed.

Coll A = Coll A repression; assay type: cell-based; conditions: for Emax: read-out: Repression Coll A % max repression; for EC50: read-out: Repression Coll A pot (EC50)

Compound	MR max fold activation (MR)	EC50 (GR [1]) [nM]	Emax (GR [1]; U2OS) [%]	GR binding RBA (dex = 100) [2]	GRE activation max fold activation (GR [3])	EC50 (GR [3]) [nM]	Emax (GR [1]) [%]	EC50 (NF-κB) [nM]	Repression NF-KB % max repression (NF-κB) [%]	Emax (Coll A; Table 2) [%]	EC50 (Coll A; Table 2) [nM]	Repression Coll A % max repression (Coll A; Table 5) [%]	EC50 (Coll A; Table 5) [nM]	Emax (Coll A; Table 5) [%]
CC12Cc3cnn(-c4ccc(F)cc4)c3C=C1CCCC2C(O)c1cccc(O)c1 (centres unmarked) [Compound 229, 3-{[1-(4-Fluoro-phenyl)-4a-methyl-4,4a,5,6,7,8-hexahydro-1H-benzo[f]indazol-5-yl]-hydroxy-methyl}-phenol]	3.1 ± 1.0	16.6	77	52	55 ± 2	110 ± 7								
C[C@@H]1C[C@H]2[C@@H]3CCC4=CC(=O)C=C[C@]4(C)[C@@]3(F)[C@@H](O)C[C@]2(C)[C@@]1(O)C(=O)CO [Dexamethasone, dexamethasone, reference compound]							89	1.5	87	84	0.36	84		
C[C@]12CCC(=O)C=C1CC[C@@H]1[C@@H]2[C@@H](O)C[C@@]2(C)[C@H]1CC[C@]2(O)C(=O)CO [Cortisol, cortisol]								8.4	83				2.1	
CC12Cc3cnn(-c4ccc(F)cc4)c3C=C1CCCC2C(O)c1csc2ccccc12 (centres unmarked) [Compound 221, 3a,7a-(Dihydro-benzo[b]thiophen-3-yl)-[1-(4-fluoro-phenyl)-4a-methyl-4,4a,5,6,7,8-hexahydro-1H-benzo[f]indazol-5-yl]-methanol]	2.0 ± 0.7	5.3	74	93	21	313								
CC12Cc3cnn(-c4ccc(F)cc4)c3C=C1CCCC2C(O)c1ccc(O)cc1 (centres unmarked) [Compound 231, 4-{[1-(4-Fluoro-phenyl)-4a-methyl-4,4a,5,6,7,8-hexahydro-1H-benzo[f]indazol-5-yl]-hydroxy-methyl}-phenol]	2.9 ± 0.5	12.8	68	36	69 ± 25	330 ± 92							28	70
